Source: ChEMBL document CHEMBL1123748, “Opioid agonist and antagonist activities of monofunctional nitrogen mustard analogues of beta-chlornaltrexamine” (1987)

Columns and labels:
Cavia porcellus [1] = organism: Cavia porcellus; assay: Antagonist activity was determined by partial agonist activity of EK in Guinea pig ileum (GPI); irreversible agonist activity; assay type: functional, organism-based
Mus musculus [2] = organism: Mus musculus; assay: IC50 ratio for leucine-enkephalin rather than DADLE determined in Mouse vas deferens (MVD); assay type: functional
Mus musculus [3] = organism: Mus musculus; assay: Opioid agonist activity was determined in Mouse vas deferens (MVD); assay type: functional
Cavia porcellus [4] = organism: Cavia porcellus; assay: Antagonist activity was determined by partial agonist activity of morphine in Guinea pig ileum (GPI); irreversible agonist activity; assay type: functional, organism-based
Cavia porcellus [5] = organism: Cavia porcellus; assay: Opioid agonist activity was determined as potency ratio relative to morphine in Guinea pig ileum (GPI); assay type: functional
Cavia porcellus [6] = organism: Cavia porcellus; assay: Antagonist activity was determined by partial agonist activity of morphine in Guinea pig ileum (GPI); assay type: functional
Cavia porcellus [7] = organism: Cavia porcellus; assay: Antagonist activity was determined by partial agonist activity of EK in Guinea pig ileum (GPI); assay type: functional

Compound | IC50 ratio (Cavia porcellus [1]) | IC50 ratio (Mus musculus [2]) | IC20 (Mus musculus [3]) [nM] | IC50 ratio (Cavia porcellus [4]) | Potency ratio (Cavia porcellus [5]) | IC50 ratio (Cavia porcellus [6]) | IC50 ratio (Cavia porcellus [7])
CN(CCCl)[C@H]1CC[C@@]2(O)C3Cc4ccc(O)c5c4C2(CCN3CC2CC2)[C@H]1O5 (stereo not given in full) | irreversible agonist activity | 5 | 3 | irreversible agonist activity | 159 |  | 
CN(CCCl)[C@@H]1CC[C@@]2(O)C3Cc4ccc(O)c5c4C2(CCN3CC2CC2)[C@H]1O5 (stereo not given in full) |  | 2.9 | 10 |  | 5.3 | 48.8 | 17.3
